Source: the supplement of paper PMC10307832

Experiments:
Assay in all cases: relative viability (nuclei count vs DMSO), 5 days (fraction); higher = more cells survive
NCI-H1666 = test system: NCI-H1666
Method in brief: (§1)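 Nuclei were stained with Hoechst during a one-step fixation (final 0.05% Triton X-100, 1% formaldehyde, 1 ug/ml Hoechst) carried out 5 days after dosing, then counted on 4× images. The cells, lung cancer lines in 1536-well plates, had been dosed by pin tool the day after seeding with one drug alone or a fixed anchor-drug dose plus five library-drug doses (not always all listed) in √10 steps. Relative viability is the nuclei count in treated wells divided by that in vehicle wells, and each value is the median of duplicate plates.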

LU99A = test system: LU99A
Method in brief: as §1

NCI-H2085 = test system: NCI-H2085
Method in brief: as §1

NCI-H2009 = test system: NCI-H2009
Method in brief: as §1

A-427 = test system: A-427
Method in brief: as §1

NCI-H1944 = test system: NCI-H1944
Method in brief: as §1

HCC-78 = test system: HCC-78
Method in brief: as §1

UMC-11 = test system: UMC-11
Method in brief: as §1

LXF-289 = test system: LXF-289
Method in brief: as §1

SW 900 = test system: SW 900
Method in brief: as §1

NCI-H1915 = test system: NCI-H1915
Method in brief: as §1

LC-2-ad = test system: LC-2-ad
Method in brief: as §1

NCI-H460 = test system: NCI-H460
Method in brief: as §1

NCI-H1793 = test system: NCI-H1793
Method in brief: as §1

EPLC-272H = test system: EPLC-272H
Method in brief: as §1

HOP-62 = test system: HOP-62
Method in brief: as §1

NCI-H358 = test system: NCI-H358
Method in brief: as §1

COR-L 105 = test system: COR-L 105
Method in brief: as §1

HCC-366 = test system: HCC-366
Method in brief: as §1

SK-LU-1 = test system: SK-LU-1
Method in brief: as §1

NCI-H2170 = test system: NCI-H2170
Method in brief: as §1

With `COc1nc(C)cnc1NS(=O)(=O)c1cccnc1-c1ccc(-c2nnco2)cc1` [Zibotentan] + COc1cc2c(Oc3ccc(NC(=O)C4(C(=O)Nc5ccc(F)cc5)CC4)cc3F)ccnc2cc1OCCCN1CCOCC1 [Foretinib] (partner 0.25 µM) the relative viability (NCI-H1666; first compound 0.08 µM) was 0.902, the relative viability (NCI-H1666; first compound 0.253 µM) was 0.918 and the relative viability (NCI-H1666; first compound 0.8 µM) was 0.938. For the same compound, the relative viability (NCI-H1666; first compound 2.53 µM) was 0.972, the relative viability (LU99A; first compound 0.08 µM) was 0.953 and the relative viability (LU99A; first compound 0.253 µM) was 0.8. For the same compound, the relative viability (LU99A; first compound 0.8 µM) was 0.888, the relative viability (LU99A; first compound 2.53 µM) was 0.918 and the relative viability (NCI-H2085; first compound 0.08 µM) was 0.97. It also gave a relative viability (NCI-H2085; first compound 0.253 µM) of 1.05, a relative viability (NCI-H2085; first compound 0.8 µM) of 0.928 and a relative viability (NCI-H2085; first compound 2.53 µM) of 1.18. The relative viability (NCI-H2009; first compound 0.08 µM) was 1.25, the relative viability (NCI-H2009; first compound 0.253 µM) was 1.24 and the relative viability (NCI-H2009; first compound 0.8 µM) was 1.28. For the same compound, the relative viability (NCI-H2009; first compound 2.53 µM) was 1.35, the relative viability (A-427; first compound 0.08 µM) was 1.14 and the relative viability (A-427; first compound 0.253 µM) was 1.1. For the same compound, the relative viability (A-427; first compound 0.8 µM) was 1.1, the relative viability (A-427; first compound 2.53 µM) was 1.19 and the relative viability (NCI-H1944; first compound 0.08 µM) was 1.02. The relative viability (NCI-H1944; first compound 0.253 µM) was 0.806, the relative viability (NCI-H1944; first compound 0.8 µM) was 0.898 and the relative viability (NCI-H1944; first compound 2.53 µM) was 0.908. It also gave a relative viability (HCC-78; first compound 0.08 µM) of 0.535, a relative viability (HCC-78; first compound 0.253 µM) of 0.484 and a relative viability (HCC-78; first compound 0.8 µM) of 0.588. The relative viability (HCC-78; first compound 2.53 µM) was 0.518, the relative viability (UMC-11; first compound 0.08 µM) was 1.05 and the relative viability (UMC-11; first compound 0.253 µM) was 0.92. For the same compound, the relative viability (UMC-11; first compound 0.8 µM) was 0.991, the relative viability (UMC-11; first compound 2.53 µM) was 1.04 and the relative viability (LXF-289; first compound 0.08 µM) was 0.965. It also gave a relative viability (LXF-289; first compound 0.253 µM) of 0.95, a relative viability (LXF-289; first compound 0.8 µM) of 1.05 and a relative viability (LXF-289; first compound 2.53 µM) of 0.954. The relative viability (SW 900; first compound 0.08 µM) was 0.997, the relative viability (SW 900; first compound 0.253 µM) was 0.811 and the relative viability (SW 900; first compound 0.8 µM) was 0.887. The relative viability (SW 900; first compound 2.53 µM) was 0.857, the relative viability (NCI-H1915; first compound 0.08 µM) was 1.16 and the relative viability (NCI-H1915; first compound 0.253 µM) was 1.1. It also gave a relative viability (NCI-H1915; first compound 0.8 µM) of 1.06, a relative viability (NCI-H1915; first compound 2.53 µM) of 1.07 and a relative viability (LC-2-ad; first compound 0.08 µM) of 1.02. For the same compound, the relative viability (LC-2-ad; first compound 0.8 µM) was 0.955, the relative viability (LC-2-ad; first compound 2.53 µM) was 0.954 and the relative viability (NCI-H460; first compound 0.08 µM) was 1.09. It also gave a relative viability (NCI-H460; first compound 0.253 µM) of 0.827, a relative viability (NCI-H460; first compound 0.8 µM) of 0.986 and a relative viability (NCI-H460; first compound 2.53 µM) of 1.05. For the same compound, the relative viability (NCI-H1793; first compound 0.08 µM) was 0.993, the relative viability (NCI-H1793; first compound 0.253 µM) was 0.721 and the relative viability (NCI-H1793; first compound 0.8 µM) was 0.546. For the same compound, the relative viability (NCI-H1793; first compound 2.53 µM) was 0.808, the relative viability (EPLC-272H; first compound 0.08 µM) was 0.696 and the relative viability (EPLC-272H; first compound 0.253 µM) was 0.641. The relative viability (EPLC-272H; first compound 0.8 µM) was 0.901, the relative viability (EPLC-272H; first compound 2.53 µM) was 0.787 and the relative viability (HOP-62; first compound 0.08 µM) was 1.06. The relative viability (HOP-62; first compound 0.253 µM) was 1.06, the relative viability (HOP-62; first compound 0.8 µM) was 1.21 and the relative viability (HOP-62; first compound 2.53 µM) was 1.07. The relative viability (NCI-H358; first compound 0.08 µM) was 0.809, the relative viability (NCI-H358; first compound 0.253 µM) was 0.485 and the relative viability (NCI-H358; first compound 0.8 µM) was 0.595. For the same compound, the relative viability (NCI-H358; first compound 2.53 µM) was 0.57, the relative viability (COR-L 105; first compound 0.08 µM) was 1.31 and the relative viability (COR-L 105; first compound 0.253 µM) was 0.996. It also gave a relative viability (COR-L 105; first compound 0.8 µM) of 1.1, a relative viability (COR-L 105; first compound 2.53 µM) of 1.03 and a relative viability (HCC-366; first compound 0.08 µM) of 0.977. For the same compound, the relative viability (HCC-366; first compound 0.253 µM) was 0.903, the relative viability (HCC-366; first compound 0.8 µM) was 0.964 and the relative viability (HCC-366; first compound 2.53 µM) was 0.976. The relative viability (SK-LU-1; first compound 0.08 µM) was 0.842, the relative viability (SK-LU-1; first compound 0.253 µM) was 0.873 and the relative viability (SK-LU-1; first compound 0.8 µM) was 0.855. For the same compound, the relative viability (SK-LU-1; first compound 2.53 µM) was 0.827, the relative viability (NCI-H2170; first compound 0.08 µM) was 1.05 and the relative viability (NCI-H2170; first compound 0.253 µM) was 1.07. The relative viability (NCI-H2170; first compound 0.8 µM) was 1.03 and the relative viability (NCI-H2170; first compound 2.53 µM) was 0.969.
